Series [1] is described as follows: Metabolic stability assay, human liver microsomes. The series is classed as in vitro ADME. To be noted: human liver microsomes 0.5 mg/mL, 1 µM compound, read-out: Liver microsomal stability (T½ /min) human. As to the method:
(§1) Metabolic stability assay: A warm incubation for metabolic stability was performed with a system of 150 µL of liver microsomes (final concentration 0.5 mg/mL) containing NADPH (final concentration 1 mM), 1 µM of the test compound and positive control midazolam or negative control atenolol, and the reaction was terminated with acetonitrile containing tinidazole at 0 min, 5 min, 10 min and 30 min, respectively. The reaction was vortexed for 10 min and centrifuged at 15000 rmp for 10 min, and 50 µL of supernatant was taken into the 96-well plate for sampling. The metabolic stability of the compound was calculated by measuring the relative reduction of the drugs.

Series [2] concerns phosphorylated ERK levels of NCI-H358. The series can be described thus: ERK phosphorylation (western blot), H358. To be noted: Homo sapiens, 3 h. The series is classed as cell-based. As to the method:
(§2) Test method 3 (ERK phosphorylation): Miapaca-2 or H358 cells were inoculated at certain concentrations in 96-well plates and incubated overnight at 37° C., 5% CO2 in a cell culture incubator, and serial dilutions of the test compound (5 concentrations, 3-fold dilution) were added to the plates the next day for 24 h (Miapaca-2) or 3 h (H358), then lysis solution containing protease and phosphatase inhibitor were added to lyse the cells to extract proteins and western blot method was used to detect the level of p-ERK.
A general note: In western blotting, separated proteins are transferred to a membrane and probed.

In series [3] the test system is NCI-H358 (lung cancer) cells. As to the kind of experiment: Proliferation test method 1 (2D, MTT), NCI-H358. Particulars: Homo sapiens, 5-7 days, read-out: IC50 proliferation inhibitory activity against NCI-H358. The class given is cell-based. How it is done:
(§3) Test method 1 (2D):NCI-H358 (lung cancer) and MiaPaca-2 cells (pancreatic cancer) cells (100 µL/well, 20,000 cells/mL) were inoculated in 96-well culture plates supplemented with 10% fetal bovine serum and 1% penicillin/streptomycin sulfate, respectively.Using 0.5% dimethyl sulfoxide as a blank control, cells were treated with a solution of the compound to be tested at a starting concentration of 10 µM, tripled diluted testing solution of the compound in eight gradients were used to treat cells, and then incubated in a 5% CO2 incubator for a certain period of time (5-7 days).At the end of incubation, 10 µL of MTT stock solution (5 mg/mL) was added to each well.The culture plates were incubated at 37° C. for 4 h and then the medium was removed.Dimethyl sulfoxide (100 µL) was added to each well and then shaken sufficiently. The absorbance of the product formazanwas measured at 570 nm on the Thermo Scientific Varioskan Flash multimode reader.IC50 values were obtained by fitting dose-response data into a three-parameter nonlinear regression model using GraphPad Prism 6.0 software.

Another series addresses T1, KRAS^G12C/SOS1 (Homo sapiens, UniProt P01116, G12C).
T1 construct: purchased CisBio
The series can be described thus: KRAS^G12C/SOS1 protein-protein interaction Binding assay (CisBio kit). To be noted: class symbols. As to the method: CisBio’s KRAS^G12C/SOS1 kit was used to test the efficacy of the compound on inhibiting the protein-protein interaction between SOS1 and KRAS^G12Cby Binding assay.Results were expressed as IC50values.
Test methods: (1) the test compound was tested at a concentration of 1000 nM. Diluted to 3-fold diluted compound of a 200-fold final concentration of 100% DMSO solution in a 384-well plate at 10 concentrations. 50 nL of 200-fold final concentration of compound was transferred to the destination plate 384 well plate using a dispenser Echo 550.50 nL of 100% DMSO was added to the negative control wells and positive control wells; (2) 4-fold final concentration of Tag1 SOS1 solution was prepared using Diluent buffer; (3) 2.5 µL of 4-fold final concentration of Tag1 SOS1 solution was added to the 384-well plate; (4) 4-fold final concentration of Tag2 KRAS^G12C solution was prepared using Diluent buffer; (5) 2.5 µL of 4-fold final concentration of Tag2 KRAS^G12C solution was added to compound wells and positive control wells, respectively; 2.5 µL of diluent buffer was added to negative control wells; (6) the 384-well plate was centrifuged at 1000 rpm for 30 seconds, shaken and mixed, and incubated at room temperature for 15 min; (7) 1-fold final concentration of Anti Tag1 TB3+ solution and 1-fold final concentration of Anti Tag2 XL665 solution were prepared with Detection buffer, and 5 µL of the mixture was added to each well after mixing the two solutions; (8) the 384-well plate was centrifuged at 1000 rpm for 30 seconds, shaken and mixed, and incubated at room temperature for 120 minutes; (9) the Envision enzyme marker was used to read
Em665/620; (10) data analysis, calculation formula; where Min signal is the mean value of negative control wells, Max signal is the mean value of positive control wells.The log value of concentration was used as the X-axis and the percentage inhibition as the Y-axis to fit the quantitative efficacy curve using the log(inhibitor) vs. response Variable slope of the quantitative efficacy curve of the analytical software GraphPad Prism 5 to derive the IC50 value of each compound on the enzyme activity.The fitting formula was: Y=Bottom+(Top Bottom)/(1+10^A((LogIC50X)^∗ HillSlope)).

The test system of series [4] is phosphorylated ERK levels of MiaPaca-2. As to the kind of experiment: ERK phosphorylation (western blot), MiaPaca-2. To be noted: Homo sapiens, MIA PaCa-2, 24 h. The class given is cell-based. How it is done: as §2
Series [5] can be described thus: Metabolic stability assay, mouse liver microsomes. The class given is in vitro ADME. To be noted: mouse liver microsomes 0.5 mg/mL, 1 µM compound, read-out: Liver microsomal stability (T½ /min) Mouse. As to the method: as §1
(In general: Microsomes from liver hold many membrane-bound enzymes, among them those of drug oxidation.)

A short description of series [6]: Metabolic stability assay, monkey liver microsomes. To be noted: monkey liver microsomes 0.5 mg/mL, 1 µM compound, read-out: Liver microsomal stability (T½ /min) monkey. The series is classed as in vitro ADME. As to the method: as §1
The nature of series [7]: Metabolic stability assay, rat liver microsomes. The class given is in vitro ADME. To be noted: rat liver microsomes 0.5 mg/mL, 1 µM compound, read-out: Liver microsomal stability (T½ /min) Rat. How it is done: as §1
A further series relates to MiaPaca-2 cells. As to the kind of experiment: Proliferation test method 2 (3D, Cell Titer Glo 3D), MiaPaca-2. The series is classed as cell-based. To be noted: Homo sapiens, MIA PaCa-2, 96 h, read-out: IC50 cell proliferation inhibitory activity against MiaPaca-2. How it is done: (§4) Test method 2 (3D): The tumor cells in the logarithmic growth phase were diluted with culture solution to a certain concentration and inoculated on the 96-well plate on the ultra-low attachment surface, and the culture medium was 80 µL/well. Cells were incubated overnight at 37° C. in a humidity chamber. On the second day, a series of diluted test compounds (10 concentrations, 3 times dilution) were added to the plate, 20 µL/well, incubated in an incubator for 96h.The plates are removed and placed at room temperature and incubated with an equal volume of Cell Titer Glo®3D reagent for 1 h. The signal is detected by the En Vision™ plate reader. […] A four-parameter nonlinear regression curve was fitted to the percent inhibition for each concentration of the compound and the IC50 was calculated.
In general terms: In ATP-based viability assays light output follows the ATP content of the culture.

Another series relates to NCI-H358 cells. As to the kind of experiment: Proliferation test method 2 (3D, Cell Titer Glo 3D), NCI-H358. Particulars: Homo sapiens, NCI-H358, 96 h, read-out: IC50 cell proliferation inhibitory activity against NCI-H358. The series is classed as cell-based. How it is done: as §4
The test system of series [8] is MiaPaca-2 cells (pancreatic cancer). The series can be described thus: Proliferation test method 1 (2D, MTT), MiaPaca-2. To be noted: 5-7 days, read-out: IC50/nM proliferation inhibitory activity on MiaPaca-2 cells. The series is classed as cell-based. How it is done:
as §3

We go through seven compounds from patent publication US20230174526A1, “BENZOTHIAZOLYL BIARYL COMPOUND, AND PREPARATION METHOD AND USE” (SHANGHAI RINGENE BIOPHARMA CO., LTD., priority 2020, published 2023).

Where two headings read alike, the source gives them in different places.

T1 sequence (P01116 1-188 isoform P01116-2 G12C): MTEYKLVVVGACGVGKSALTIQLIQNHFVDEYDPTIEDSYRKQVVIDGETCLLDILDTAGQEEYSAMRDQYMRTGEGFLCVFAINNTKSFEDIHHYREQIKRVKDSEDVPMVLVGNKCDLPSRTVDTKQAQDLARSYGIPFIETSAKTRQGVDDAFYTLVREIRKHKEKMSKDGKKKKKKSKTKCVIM

On to `C=CC(=O)N1CCN(c2nc(OC[C@@H]3CCCN3C)nc3c(F)c(-c4ccc(F)c5sc(N)nc45)c(Cl)cc23)CC1` [Example 1, 1-(4-(7-(2-Amino-7-Fluorobenzo [d] Thiazol-4-yl) -6-Chloro-8-Fluoro-2-(((S)-1-Methylpyrrolin-2-yl) Methoxy) Quinazolin-4-yl) Piperazin-1-Yl) Prop-2-En-1-One], for which the half-life at 1 µM in series [1] is over 30 min. Also, the IC50 is under 500 nM in series [2], under 100 nM in series [3], under 50 nM at KRAS^G12C/SOS1 and under 500 nM in series [4].

Take `C=CC(=O)N1CC2C(=O)N(C)c3cnc4c(F)c(-c5c(O)cccc5F)c(Cl)cc4c3N2CC1C` (single isomer, unassigned) [Comparative Compound 2-1, reference compound]: the half-life at 1 µM in [1] stood at 54 min; in [5], 47 min; in series [6], 42 min; in [7], 41 min. At KRAS^G12C/SOS1, this compound registered an IC50 of 50 to 200 nM.

As to `C=CC(=O)N1CCN(c2nc(OCCN(C)C)nc3c(F)c(-c4ccc(F)c5sc(N)nc45)c(Cl)cc23)CC1` [Example 5], the IC50 in series [2] is under 500 nM; in series [3], under 100 nM; on KRAS^G12C/SOS1, under 50 nM; in series [4], under 500 nM; in the series on MiaPaca-2 cells, under 200 nM; with NCI-H358 cells, under 200 nM.

Turning to `C=C(F)C(=O)N1CCN(c2c(C#N)c(OC[C@@H]3CCCN3C)nc3c(F)c(-c4ccc(F)c5sc(N)nc45)c(Cl)cc23)CC1` [Example 14], the half-life at 1 µM in [1], in series [5] and in [6] was over 30 min each time. For the same compound, the IC50 is 0.9 nM in series [8] (Homo sapiens, MIA PaCa-2, 2D) and 50 to 200 nM at KRAS^G12C/SOS1.

With `C=CC(=O)N1CCN(c2c(C#N)c(OCCN(C)C)nc3c(F)c(-c4ccc(F)c5sc(N)nc45)c(Cl)cc23)CC1` [Example 20, 4-(4-Acryloyl Piperazin-1-yl)-7-(2-Amino-7-Fluorobenzo [d] Thiazol-4-yl) -6-Chloro-2-(2-(Dimethylamino) Ethoxy)-8-Fluoroquinolin-3 -Cyano], the half-life at 1 µM in series [5], in [6] and in series [7] was over 30 min in each case. The IC50 was under 500 nM in series [2]; under 100 nM in series [3]; under 50 nM at KRAS^G12C/SOS1; under 500 nM in series [4]; under 200 nM with MiaPaca-2 cells; under 200 nM with NCI-H358 cells.

`C=CC(=O)N1CCN(c2nc(OC[C@@H]3CCCN3C)nc3c(F)c(-c4ccc(F)c5sc(N)nc45)c(Cl)cc23)[C@@H](C)C1` [Example 23, 1-((3S)-4-(7-(2-Amino-7-Fluorobenzo [d]thiazol-4-yl) -6-Chloro-8-Fluoro-2-(((S)-1-Methylpyrrolin-2-yl) Methoxy) Quinazolin-4-yl)-3-Methylpiperazin-1-yl) Prop-2-En-1-One]: the half-life at 1 µM in series [6] and in series [7] was over 30 min each time. The IC50 in series [8] (Homo sapiens, MIA PaCa-2, 2D) is 1.2 nM; on KRAS^G12C/SOS1, under 50 nM.

Take `C=CC(=O)N1CCN(c2c(C#N)cnc3c(F)c(-c4ccc(F)c5sc(N)nc45)c(Cl)cc23)[C@@H](C)C1` [Example 10, 4-((S)-4-Acryloyl-2-Methylpiperazin-1-yl)-7-(2-Amino-7-Fluorobenzo[d]Thiazol-4-yl)-6-Chloro-8-Fluoroquinolin-3-Cyano]: the IC50 is under 500 nM in [2]; under 100 nM in series [3]; 57.2 nM in series [8] (2D); under 100 nM in [8] (Homo sapiens, MIA PaCa-2, 2D); 50 to 200 nM on KRAS^G12C/SOS1; under 500 nM in series [4]. In addition, the IC50 in the series on MiaPaca-2 cells and in the series with NCI-H358 cells was under 200 nM each time.
